Measurements reported in ChEMBL document CHEMBL5233243, “Design and discovery of boronic acid drugs” (Eur J Med Chem, 2020).
Converted amounts (≈) assume the structure as drawn. Blank lines part the entries; values can stand above or below the molecule they belong to. Residues, ends and D or L forms follow the SMILES beside them. *: point of attachment. CF3 = FC(F)(F)*; Moc = COC(=O)*

How the values were obtained:
[1] = tested on: Human immunodeficiency virus; test: Antiviral activity against HIV infected in human MT-2 cells; type: functional, organism-based; settings: Human immunodeficiency virus 1, MT2
[2] = biological target: Human immunodeficiency virus type 1 protease (Human immunodeficiency virus 1, UniProt Q72874); test: Inhibition of HIV-1 protease
Autotaxin = Autotaxin (Homo sapiens, UniProt Q13822); test: Inhibition of autotaxin (unknown origin)
[3] = Solubility of compound at pH 2; type: physicochemical; settings: buffer
MCF7 = test: Antiproliferative activity against human MCF7 cells assessed as inhibition of cell growth incubated for 48 hrs by SRB assay; type: functional, cell-based; settings: MCF7, 48 h
Neutrophil elastase = biological target: T1, Neutrophil elastase (Homo sapiens, UniProt P08246); test: Inhibition of human neutrophil elastase
T1 sequence (P08246 whole entry): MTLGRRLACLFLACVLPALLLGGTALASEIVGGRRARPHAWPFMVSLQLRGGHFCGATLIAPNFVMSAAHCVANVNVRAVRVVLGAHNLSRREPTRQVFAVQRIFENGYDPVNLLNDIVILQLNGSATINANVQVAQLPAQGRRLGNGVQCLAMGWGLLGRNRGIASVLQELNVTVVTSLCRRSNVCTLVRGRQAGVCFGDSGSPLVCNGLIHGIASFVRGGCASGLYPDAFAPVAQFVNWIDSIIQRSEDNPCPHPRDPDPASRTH

[4] = Inhibition of beta-lactamase AmpC (unknown origin); design: species or system Bacteria
Escherichia coli = test: Antibacterial activity against Escherichia coli; type: functional

- IC50 [1]: > 1000 nM
- Ki [2]: 0.0129 nM
Compound: CC(C)CN(C[C@@H](O)[C@H](Cc1ccccc1)NC(=O)O[C@H]1CO[C@H]2OCC[C@H]21)S(=O)(=O)c1ccc(C(=O)O)cc1

- IC50 [1]: 37.7 nM
- Ki [2]: 0.0155 nM
Compound: CC(C)CN(C[C@@H](O)[C@H](Cc1ccccc1)NC(=O)OC1C2COC3OCC1C3C2)S(=O)(=O)c1ccc(B(O)O)cc1 (stereo partly drawn)

- IC50 (Autotaxin): 28 nM
Compound: COc1cc(/C=C2\SC(=O)N(Cc3ccc(F)cc3)C2=O)ccc1OCc1ccc(B(O)O)cc1

- Ki [4]: 0.8 nM
Compound: O=S(=O)(Cc1ccc(-c2nnn[nH]2)nc1)NCB(O)O

Second part, the molecule before the results:

Compound: COc1ccc(/C=C\c2cc(OC)c(OC)c(OC)c2)cc1O [COMBRETASTATIN A4]
- solubility [3]: 18.9 µg/mL (≈ 59.7 µM)
- IC50 (MCF7): 32 nM

Compound: COC(=O)N[C@H](C(=O)N1CCC[C@H]1C(=O)N[C@H](B(O)O)C(C)C)C(C)C
- IC50 (Neutrophil elastase): 0.27 nM

Compound: COc1ccc(/C=C\c2cc(OC)c(OC)c(OC)c2)cc1B(O)O
- solubility [3]: 33.8 µg/mL (≈ 98.2 µM)

Compound: OB(O)c1cnn(-c2cc(Cl)ncn2)c1
- Ki [4]: 10 nM
- MIC (Escherichia coli): 1 µg/mL (≈ 4.46 µM)

Compound: COC(=O)N[C@H](C(=O)N1CCC[C@H]1C(=O)N[C@H](C(=O)C(F)(F)F)C(C)C)C(C)C (Moc-Val-Pro-Val-CF3)
- IC50 (Neutrophil elastase): 135 nM
